From patent US20250082763A1, “COMBINATION DRUG FOR TREATING TRIPLE-NEGATIVE BREAST CANCER” (HINOVA PHARMACEUTICALS INC., priority 2022, published 2025)

Key:
Format in all cases: cell-based
[1] = system: HCC1937; test: Antiproliferation, CellTiter-Glo, 5 days, HCC1937; details: Homo sapiens, 120 h, HCC1937, AR− TNBC
Experimental: (§1) For MDA-MB-453, MFM-223, SUM159PT, MDA-MB-468, and HCC1937, 4,000, 3,000, 1,000, 3,000, and 3,000 cells were plated per well in 96-well microplates (Corning Inc), respectively. Cells were treated with serial dilutions of tested compounds with the maximum working concentration of 10 μM. Cell survival was measured 5 days later using a CellTiter-Glo luminescent cell viability assay kit (Promega Corporation). Luminescence was recorded by FLUOstar Omega microplate reader (BMG Labtech). Half maximal inhibitory concentration (IC50) was determined with GraphPad Prism using baseline correction (by normalizing to dimethyl sulfoxide (DMSO) control)

[2] = system: MDA-MB-453 cells; test: Combination with PI3K inhibitor Duvelisib, proliferation of MDA-MB-453 cells, Combination Index; details: molar ratio to Duvelisib 1:30-1:1.111, 7-10 days
Experimental: (§2) Triple negative breast cancer MDA-MB-453 cells in logarithmic growth stage were inoculated into a 96-well plate at a concentration of 4×10^3 cells/well, and then incubated in an incubator at 37° C., 5% CO2, and saturated humidity for 24 h. To the negative control wells, were added RPMI 1640 cell culture medium containing 10% fetal bovine serum in the same volume as the drug. After cultured for 24 h, to the 96-well plate, were sequentially added AR PROTACs compounds 279, 281, 282, ARV-110 and PI3K inhibitor Duvelisib, respectively.
(§3) After adding the drugs and co-incubating for 7-10 days, 10 μL of CCK-8 was added to each well, and then the plate was further cultured for 2 h. The absorbance value (OD) of each well was measured using a microplate reader at a wavelength of 450 nm. The survival rate was calculated using Prism software, the relative survival rate=(OD value of drug well/OD value of control well)×100%. Alternatively, 100 μL of medium was removed from each well, and then 50 μL of CTG was added. The plate was shaken in the dark for 2 min, allowed to stand for 10 min, and then measured using a microplate reader in Luminescence mode. Prism software was used to calculate the survival rate, the relative survival rate=(the RLU value of drug well/the RLU value of control well)×100%.

[3] = system: MDA-MB-453 cells; test: Combination with PI3K inhibitor Idelalisib, proliferation of MDA-MB-453 cells, Combination Index; details: molar ratio to Idelalisib 1:270-1:3.333, 7-10 days
Experimental: as §2, with “ARV-110, ARV-766” for “ARV-110”, “Idelalisib,” for “Duvelisib,”
as §3

[4] = system: MFM-223; test: Antiproliferation, CellTiter-Glo, 5 days, MFM-223; details: Homo sapiens, 120 h, MFM-223, AR+ TNBC
Experimental: as §1

[5] = system: MDA-MB-453 cells; test: Combination with chemotherapeutic drug Paclitaxel, proliferation of MDA-MB-453 cells, Combination Index; details: molar ratio to Paclitaxel 20:1-5000:1, 7 days
Experimental: as §2, with “chemotherapeutic drug Paclitaxel,” for “PI3K inhibitor Duvelisib,”
as §3, with “7” for “7-10”

[6] = system: MDA-MB-453; test: Antiproliferation, CellTiter-Glo, 5 days, MDA-MB-453; details: Homo sapiens, 120 h, MDA-MB-453, AR+ TNBC
Experimental: as §1

[7] = system: MDA-MB-453 cells; test: Inhibition of proliferation of MDA-MB-453 cells (CCK-8 or CTG, 7-10 days); details: Homo sapiens, co-incubation 7-10 days, CCK-8 or CTG, read-out: IC50 values against MDA-MB-453 cells
Experimental: Triple negative breast cancer MDA-MB-453 cells in logarithmic growth stage were inoculated into a 96-well plate at a concentration of 4×10^3 cells/well, and then incubated in an incubator at 37° C., 5% CO2, and saturated humidity for 24 h or 48 h. To the negative control well, was added RPMI 1640 cell medium containing 10% fetal bovine serum in the same volume as the drug. After cultured for 24 h or 48 h, to the 96-well plate, were added AR PROTACs compounds 162, 177, 230, 259, 279, 281, 282, 325, 357, 400, ARV-110, ARV-766 and AR inhibitor HC-1119, respectively. The concentrations of compounds 177, 230, 259, 279, 281, 282, 325, 357, 400, ARV-110, and ARV-766 are 0 μM, 0.002 μM, 0.005 μM, 0.014 μM, 0.041 μM, 0.123 μM, 0.370 μM, 1.111 μM, 3.333 μM or 10 μM; while the concentrations of HC-1119 are 0 μM, 1.23 μM, 3.70 μM, 11.11 μM, 33.33 μM or 100 μM.
as §3, with “addition of” for “adding”, “co-incubation” for “co-incubating”

SMILES | IC50 [1] | effect of the combination with Duvelisib on inhibiting proliferation (CI<1 = synergistic) [2] | effect of the combination with Idelalisib on inhibiting proliferation (CI<1 = synergistic) [3] | IC50 [4] | effect of the combination with Paclitaxel on inhibiting proliferation (CI<1 = synergistic) [5] | IC50 [6] | IC50 [7]
N#Cc1ccc(O[C@H]2CC[C@H](NC(=O)c3ccc(N4CCC(CN5CCN(c6cc7c(cc6F)C(=O)N(C6CCC(=O)NC6=O)C7=O)CC5)CC4)nn3)CC2)cc1Cl (some centres unmarked) [ARV-110, reference compound] | > 10 µM | synergistic effect | synergistic effect | 4 µM | synergistic effect | 1.4 µM | ≤ 2 µM
N#Cc1ccc(O[C@H]2CC[C@H](NC(=O)c3cnc(N4CCC(CN5CCC6(CC5)CN(c5ccc7c(c5)C(=O)N(C5CCC(=O)NC5=O)C7=O)C6)CC4)nn3)CC2)cc1Cl (some centres unmarked) [Compound 279] | > 10 µM | synergistic effect | synergistic effect | 0.46 µM | synergistic effect | 0.14 µM | ≤ 2 µM
